Experimental data as given in the NIST ThermoML archive (doi:10.1021/acs.jced.7b00221).
± gives the expanded uncertainty stated by the source.

Legend:
[1] = 100 kPa, Liquid; for mass density: Vibrating tube method; for viscosity: Cone and plate viscometry
[2] = xn = mol fraction of the nth substance listed; conditions: 100 kPa, Liquid, Cone and plate viscometry

CCCCCCCC[P+](CC)(CC)CC.O=[N+]([O-])c1cn[n-]c1 [triethyloctylphosphonium 4-nitropyrazolide]
[1]
Conditions | mass density [kg/m3]
283.15 K | 1040.7 ± 12
288.15 K | 1037.7 ± 12
293.15 K | 1034.6 ± 12
295.15 K | 1033.4 ± 12
298.15 K | 1031.5 ± 12
303.15 K | 1028.5 ± 12
308.15 K | 1025.5 ± 12
313.15 K | 1022.6 ± 12
318.15 K | 1019.6 ± 12
323.15 K | 1016.7 ± 12
328.15 K | 1013.8 ± 12
333.15 K | 1010.8 ± 12
338.15 K | 1007.9 ± 12
343.15 K | 1005 ± 12
348.15 K | 1002.1 ± 12
353.15 K | 999.2 ± 12

CCCCCCCCCCCCCC[P+](CCCCCC)(CCCCCC)CCCCCC.N#Cc1ccc[n-]1 [trihexyl(tetradecyl)phosphonium 2-cyanopyrrolide]
[1]
Conditions | viscosity [mPa·s]
278.15 K | 1764 ± 240
283.15 K | 1179 ± 160
288.15 K | 804 ± 110
293.15 K | 563 ± 73
298.15 K | 404 ± 51
303.15 K | 297 ± 37
308.15 K | 223 ± 28
313.15 K | 170 ± 21
318.15 K | 133 ± 16
323.15 K | 106 ± 13

CCCCCCCCCCCCCC[P+](CCCCCC)(CCCCCC)CCCCCC.O=[N+]([O-])c1cn[n-]c1 [trihexyl(tetradecyl)phosphonium 4-nitropyrazolide] + CCCCCC[n+]1ccn(C)c1.O=S(=O)([N-]S(=O)(=O)C(F)(F)F)C(F)(F)F
viscosity [mPa·s], [2]
Conditions | 278.15 K | 283.15 K | 288.15 K | 293.15 K | 298.15 K | 303.15 K | 308.15 K | 313.15 K | 318.15 K | 323.15 K
x1 = 0.099 | 338 ± 43 | 241 ± 30 | 175 ± 22 | 132 ± 16 | 101 ± 12 | 80 ± 10 | 65 ± 8 | 52 ± 6 | – | –
x1 = 0.2 | 528 ± 68 | 367 ± 47 | 261 ± 33 | 191 ± 24 | 144 ± 18 | 111 ± 14 | 88 ± 11 | 70 ± 8 | 57 ± 7 | –
x1 = 0.3 | 831 ± 110 | 565 ± 73 | 393 ± 50 | 282 ± 35 | 208 ± 26 | 158 ± 19 | 122 ± 15 | 97 ± 12 | 78 ± 9 | 64 ± 8
x1 = 0.501 | 1594 ± 220 | 1055 ± 140 | 715 ± 93 | 499 ± 64 | 357 ± 45 | 264 ± 33 | 199 ± 25 | 153 ± 19 | 120 ± 15 | 96 ± 12
x1 = 0.695 | 2474 ± 350 | 1600 ± 220 | 1061 ± 140 | 726 ± 95 | 512 ± 66 | 371 ± 47 | 276 ± 34 | 209 ± 26 | 162 ± 20 | 128 ± 16
x1 = 0.797 | 2704 ± 380 | 1750 ± 240 | 1158 ± 160 | 788 ± 100 | 554 ± 71 | 400 ± 51 | 296 ± 37 | 222 ± 27 | 171 ± 21 | 134 ± 16
x1 = 0.898 | 3071 ± 440 | 1971 ± 270 | 1297 ± 180 | 880 ± 120 | 614 ± 80 | 441 ± 56 | 325 ± 41 | 244 ± 30 | 187 ± 23 | 146 ± 18
